Values of other authors as cited in US20140066461A1, “METHODS FOR DIAGNOSING AND TREATING SCHIZOPHRENIA” (priority 2012, published 2014).

Columns and labels:
[1] = system: protein tyrosine phosphatases
BTK = BTK (Homo sapiens, UniProt Q06187)
[2] = system: patients with previously treated mantle cell lymphoma
rats [3] = system: rats
rats [4] = system: rats; remark: listed apart in the source

Sequence of BTK (Q06187 whole entry): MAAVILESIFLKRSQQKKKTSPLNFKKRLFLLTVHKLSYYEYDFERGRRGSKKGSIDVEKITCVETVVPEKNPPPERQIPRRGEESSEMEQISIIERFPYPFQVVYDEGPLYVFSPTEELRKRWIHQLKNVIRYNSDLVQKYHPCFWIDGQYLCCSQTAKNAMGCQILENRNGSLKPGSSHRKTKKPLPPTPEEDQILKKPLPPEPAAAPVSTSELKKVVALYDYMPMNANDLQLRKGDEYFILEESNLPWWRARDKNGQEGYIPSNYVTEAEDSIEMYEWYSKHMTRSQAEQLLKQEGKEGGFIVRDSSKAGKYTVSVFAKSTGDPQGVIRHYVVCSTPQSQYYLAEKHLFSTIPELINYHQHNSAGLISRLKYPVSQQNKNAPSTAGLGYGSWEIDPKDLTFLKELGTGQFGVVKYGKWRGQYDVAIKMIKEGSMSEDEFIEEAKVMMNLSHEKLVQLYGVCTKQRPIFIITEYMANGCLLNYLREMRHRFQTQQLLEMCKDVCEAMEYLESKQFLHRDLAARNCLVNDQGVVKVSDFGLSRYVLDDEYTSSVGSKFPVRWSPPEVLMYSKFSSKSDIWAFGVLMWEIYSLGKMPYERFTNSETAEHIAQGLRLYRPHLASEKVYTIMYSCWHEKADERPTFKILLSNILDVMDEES

Cc1ccc(S(=O)(=O)/C=C/C#N)cc1 [BAY-11-7082]
inhibition of protein tyrosine phosphatases [1]: act as inhibitors of protein tyrosine phosphatases

Nc1ncnc2c1c(-c1ccc(Oc3ccccc3)cc1)nn2C1CCCC1 [PCI-29732]
mode of BTK inhibition (BTK): reversible BTK inhibitor

C=CC(=O)N1CCC[C@@H](n2nc(-c3ccc(Oc4ccccc4)cc3)c3c(N)ncnc32)C1 [PCI-32765]
complete responses ([2]; 560 mg/day): About 15% | objective responses (partial plus complete) ([2]; 560 mg/day, 51 patients evaluable for efficacy, early in the trial): 69% | effect on lymph nodes ([2]; MCL study, accompanied by large increases in lymphocyte counts in circulation): rapid shrinkage of lymph nodes swollen with malignant cells | patients exhibiting complete or partial responses ([2]; preliminary data, ongoing phase II trial): About two-thirds | toxicity ([2]; small trials, mantle cell lymphoma): low toxicity

O=C(CCCN1CCC(O)(c2ccc(Cl)cc2)CC1)c1ccc(F)cc1 [haloperidol]
picrotoxin effect on prepulse inhibition of startle (rats [3]): reduces this effect | effects of amphetamine on attention (rats [4]): reverse the effects of amphetamine on attention in rats
